The values below come from ChEMBL document CHEMBL4325920, “Discovery of Clinical Candidate BMS-823778 as an Inhibitor of Human 11β-Hydroxysteroid Dehydrogenase Type 1 (11β-HSD-1)” (ACS Med Chem Lett, 2018).

Assay [1] deals with T1, Nuclear receptor subfamily 1 group I member 2 (Homo sapiens, UniProt O75469).
T1 sequence (O75469 whole entry): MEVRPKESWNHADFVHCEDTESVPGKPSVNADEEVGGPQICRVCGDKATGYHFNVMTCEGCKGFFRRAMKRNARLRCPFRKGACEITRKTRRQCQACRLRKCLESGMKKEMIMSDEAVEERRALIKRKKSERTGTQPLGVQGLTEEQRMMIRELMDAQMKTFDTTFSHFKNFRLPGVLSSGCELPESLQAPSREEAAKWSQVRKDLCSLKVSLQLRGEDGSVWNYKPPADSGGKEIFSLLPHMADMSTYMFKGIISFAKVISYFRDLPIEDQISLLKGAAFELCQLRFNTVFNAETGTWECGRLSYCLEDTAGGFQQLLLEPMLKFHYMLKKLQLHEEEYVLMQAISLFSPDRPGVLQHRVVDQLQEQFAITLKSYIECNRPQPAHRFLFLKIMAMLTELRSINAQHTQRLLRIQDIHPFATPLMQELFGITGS
The assay can be described thus: Activation of PXR (unknown origin). Type of assay: ADME.

The target of assay [2] is 11-beta-hydroxysteroid dehydrogenase 1 (Mus musculus, UniProt P50172). The assay can be described thus: Inhibition of recombinant mouse 11beta-HSD1 expressed in HEK293 cell microsomes using [3H]cortisone as substrate after 4 hrs by homogeneous immuno-radiometric scintillation proximity assay.
11-beta-hydroxysteroid dehydrogenase 1, sequence (P50172 whole entry): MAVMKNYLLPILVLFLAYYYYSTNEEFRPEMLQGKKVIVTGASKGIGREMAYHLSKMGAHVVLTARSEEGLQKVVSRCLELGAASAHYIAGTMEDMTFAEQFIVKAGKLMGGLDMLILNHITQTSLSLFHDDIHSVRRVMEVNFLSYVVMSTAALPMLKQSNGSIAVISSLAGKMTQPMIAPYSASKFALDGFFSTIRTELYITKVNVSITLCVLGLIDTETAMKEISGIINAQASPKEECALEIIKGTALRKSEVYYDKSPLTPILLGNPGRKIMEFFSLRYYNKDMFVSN

In turn, `CC(C)(CCO)c1cccn2c(C3(c4ccc(Cl)cc4)CC3)nnc12` had a concentration giving a half-maximal response (EC50) in assay [1] of 1.3 µM. The IC50 in assay [2] stood at 1.15 µM.

With `OC(c1cccn2c(C3(c4ccc(Cl)cc4)CC3)nnc12)C1CC1` (stereo not given), in assay [1], it took 48 µM to reach a half-maximal effect (EC50). In addition, the IC50 in assay [2] worked out at 8.06 µM.

On to `OCCCc1cccn2c(C3(c4ccc(Cl)cc4)CC3)nnc12`, for which the EC50 in assay [1] was 25 µM. The half-inhibitory concentration (IC50) in assay [2] came out at 5.7 µM.

In turn, `CC(C)(C(=O)O)c1cccn2c(C3(c4ccc(Cl)cc4)CC3)nnc12` displayed an EC50 in assay [1] above 50 µM. For the same molecule, in assay [2], the IC50 was above 10 µM.

As to `OCC(O)c1cccn2c(C3(c4ccc(Cl)cc4)CC3)nnc12` (stereo not given), the 50% effective concentration (EC50) in assay [1] is above 50 µM. For the same molecule, in assay [2], the IC50 was above 10 µM.
